Source: US7138361B2, “Herbicidal heterocycles” (E. I. du Pont de Nemours and Company, priority 2000, dated 2006)

Columns and labels:
Type in all cases: in vivo
[1] = tested on: giant foxtail (Setaria faberii); experiment: Test C preemergence; settings: for Plant response rating, Foxtail, Giant: scale 0 to 100, 0 no effect, 100 complete control; for Plant response rating (0 to 100), Foxtail, Giant: preemergence, visual evaluation after 12 to 14 days
In short: (§1)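 Plants held in greenhouse for 12–14 days post-application are scored by eye against controls on a 0–100 control scale. Application timing: preemergence on sown seed, or postemergence on 2–18 cm plants.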

[2] = tested on: common ragweed (Ambrosia elatior); experiment: Test C preemergence; settings: for Plant response rating, Ragweed, Common: scale 0 to 100, 0 no effect, 100 complete control
In short: as §1

[3] = tested on: Sunflower; experiment: Test C preemergence; settings: Rate 125 g/ha; scale 0 to 100, 0 no effect, 100 complete control
[4] = tested on: bermudagrass (Cynodon dactylon); experiment: Test C preemergence; settings: for Plant response rating, Bermudagrass: scale 0 to 100, 0 no effect, 100 complete control; for Plant response rating (0 to 100 where 0 is no effect and 100 is complete control), Bermudagrass: preemergence, visual evaluation after 12 to 14 days
In short: as §1

[5] = tested on: goosegrass (Eleusine indica); experiment: Test C preemergence; settings: for Plant response rating, Goosegrass: scale 0 to 100, 0 no effect, 100 complete control; for Plant response rating (0 to 100), Goosegrass: preemergence, visual evaluation after 12 to 14 days
In short: as §1

[6] = tested on: yellow nutsedge (Cyperus esculentus); experiment: Test C preemergence; settings: for Plant response rating, Nutsedge: scale 0 to 100, 0 no effect, 100 complete control
In short: as §1

[7] = tested on: velvetleaf (Abutilon theophrasti); experiment: Test C preemergence; settings: for Plant response rating, Velvetleaf: scale 0 to 100, 0 no effect, 100 complete control
In short: as §1

[8] = tested on: woolly cupgrass (Eriochloa villosa); experiment: Test C preemergence; settings: for Plant response rating, Cupgrass, Woolly: scale 0 to 100, 0 no effect, 100 complete control; for Plant response rating (0 to 100), Cupgrass, Woolly: preemergence, visual evaluation after 12 to 14 days
In short: as §1

[9] = tested on: Surinam grass (Brachiaria decumbens); experiment: Test C preemergence; settings: for Plant response rating, Surinam grass: scale 0 to 100, 0 no effect, 100 complete control; for Plant response rating (0 to 100), Surinam grass: preemergence, visual evaluation after 12 to 14 days
In short: as §1

[10] = tested on: pigweed (Amaranthus retroflexus); experiment: Test C preemergence; settings: for Plant response rating, Pigweed: scale 0 to 100, 0 no effect, 100 complete control
In short: as §1

[11] = tested on: kochia (Kochia scoparia); experiment: Test C preemergence; settings: for Plant response rating, Kochia: scale 0 to 100, 0 no effect, 100 complete control; for Plant response rating (0 to 100), Kochia: preemergence, visual evaluation after 12 to 14 days
In short: as §1

[12] = tested on: lambsquarters (Chenopodium album); experiment: Test C preemergence; settings: for Plant response rating, Lambsquarters: scale 0 to 100, 0 no effect, 100 complete control
In short: as §1

[13] = tested on: morningglory (Ipomoea hederacea); experiment: Test C preemergence; settings: for Plant response rating, Morningglory: scale 0 to 100, 0 no effect, 100 complete control
In short: as §1

[14] = tested on: johnsongrass (Sorghum halepense); experiment: Test C preemergence; settings: for Plant response rating, Johnsongrass: scale 0 to 100, 0 no effect, 100 complete control; for Plant response rating (0 to 100), Johnsongrass: preemergence, visual evaluation after 12 to 14 days
In short: as §1

[15] = tested on: soybean (Glycine max); experiment: Test C preemergence; settings: for Plant response rating, Soybean: scale 0 to 100, 0 no effect, 100 complete control
In short: as §1

[16] = tested on: cocklebur (Xanthium strumarium); experiment: Test C preemergence; settings: for Plant response rating, Cocklebur: scale 0 to 100, 0 no effect, 100 complete control; for Plant response rating (0 to 100), Cocklebur: preemergence, visual evaluation after 12 to 14 days
In short: as §1

[17] = tested on: crabgrass (Digitaria sanguinalis); experiment: Test C preemergence; settings: for Plant response rating, Crabgrass: scale 0 to 100, 0 no effect, 100 complete control; for Plant response rating (0 to 100), Crabgrass: preemergence, visual evaluation after 12 to 14 days
In short: as §1

[18] = tested on: Nightshade; experiment: Test C preemergence; settings: scale 0 to 100, 0 no effect, 100 complete control
[19] = tested on: corn (Zea mays); experiment: Test C preemergence; settings: for Plant response rating, Corn: scale 0 to 100, 0 no effect, 100 complete control; for Plant response rating (0 to 100), Corn: preemergence, visual evaluation after 12 to 14 days
In short: as §1

[20] = tested on: Sunflower; experiment: Test C preemergence; settings: Rate 500 g/ha, visual evaluation after 12 to 14 days
[21] = tested on: barnyardgrass (Echinochloa crus-galli); experiment: Test C flooded paddy test; settings: for Barnyardgrass plant response rating: Flooded Paddy, scale 0 to 100, 0 no effect, 100 complete control; for Plant response rating, Barnyardgrass: flooded paddy test, scale 0 to 100 (0 no effect, 100 complete control)
In short: (§2)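 Visually assessed vs untreated controls 12–14 d post-treatment (greenhouse). Flooded paddy plants were at the 2-leaf stage; scale 0 = no effect, 100 = complete control.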

[22] = tested on: rice (Oryza saliva); experiment: Test C flooded paddy test; settings: for Rice plant response rating: Flooded Paddy, scale 0 to 100, 0 no effect, 100 complete control; for Plant response rating, Rice: flooded paddy test, scale 0 to 100 (0 no effect, 100 complete control)
In short: as §2

[23] = preemergence, Rate 500 g/ha, visual evaluation after 12 to 14 days

## Cc1ccc(N2CCC(n3ccc(C(C)(C)C)n3)C2=O)cc1OC(F)F (centres unmarked) [Compound 79]
[1]; Rate 62 g/ha
  Plant response rating, Foxtail, Giant: 0
[1]; Rate 125 g/ha
  Plant response rating, Foxtail, Giant: 0
[1]; Rate 250 g/ha
  Plant response rating (0 to 100), Foxtail, Giant: 0
[1]; Rate 500 g/ha
  Plant response rating (0 to 100), Foxtail, Giant: 0
[2]; Rate 125 g/ha
  Plant response rating, Ragweed, Common: 100
[2]; [23]
  Plant response rating (0 to 100), Ragweed, Common: 100
[2]; preemergence, Rate 250 g/ha
  Plant response rating, Ragweed, Common: 100
[3]
  Plant response rating, Sunflower: 0
[4]; Rate 62 g/ha
  Plant response rating, Bermudagrass: 100
[4]; Rate 125 g/ha
  Plant response rating, Bermudagrass: 100
[4]; Rate 250 g/ha
  Plant response rating (0 to 100 where 0 is no effect and 100 is complete control), Bermudagrass: 100
[4]; Rate 500 g/ha
  Plant response rating (0 to 100 where 0 is no effect and 100 is complete control), Bermudagrass: 100
[5]; Rate 62 g/ha
  Plant response rating, Goosegrass: 80
[5]; Rate 125 g/ha
  Plant response rating, Goosegrass: 90
[5]; Rate 250 g/ha
  Plant response rating (0 to 100), Goosegrass: 100
[5]; Rate 500 g/ha
  Plant response rating (0 to 100), Goosegrass: 100
[6]; Rate 62 g/ha
  Plant response rating, Nutsedge: 0
[6]; Rate 125 g/ha
  Plant response rating, Nutsedge: 0
[6]; [23]
  Plant response rating (0 to 100), Nutsedge: 0
[6]; preemergence, Rate 250 g/ha
  Plant response rating, Nutsedge: 0
[7]; Rate 125 g/ha
  Plant response rating, Velvetleaf: 0
[7]; [23]
  Plant response rating (0 to 100), Velvetleaf: 50
[7]; preemergence, Rate 250 g/ha
  Plant response rating, Velvetleaf: 20
[8]; Rate 62 g/ha
  Plant response rating, Cupgrass, Woolly: 90
[8]; Rate 125 g/ha
  Plant response rating, Cupgrass, Woolly: 90
[8]; Rate 250 g/ha
  Plant response rating (0 to 100), Cupgrass, Woolly: 100
[8]; Rate 500 g/ha
  Plant response rating (0 to 100), Cupgrass, Woolly: 100
[9]; Rate 62 g/ha
  Plant response rating, Surinam grass: 0
[9]; Rate 125 g/ha
  Plant response rating, Surinam grass: 20
[9]; Rate 250 g/ha
  Plant response rating (0 to 100), Surinam grass: 60
[9]; Rate 500 g/ha
  Plant response rating (0 to 100), Surinam grass: 100
[10]; Rate 125 g/ha
  Plant response rating, Pigweed: 10
[10]; [23]
  Plant response rating (0 to 100), Pigweed: 100
[10]; preemergence, Rate 250 g/ha
  Plant response rating, Pigweed: 20
[11]; Rate 62 g/ha
  Plant response rating, Kochia: 100
[11]; Rate 125 g/ha
  Plant response rating, Kochia: 100
[11]; Rate 250 g/ha
  Plant response rating (0 to 100), Kochia: 100
[11]; Rate 500 g/ha
  Plant response rating (0 to 100), Kochia: 100
[12]; Rate 62 g/ha
  Plant response rating, Lambsquarters: 100
[12]; Rate 125 g/ha
  Plant response rating, Lambsquarters: 100
[12]; [23]
  Plant response rating (0 to 100), Lambsquarters: 100
[12]; preemergence, Rate 250 g/ha
  Plant response rating, Lambsquarters: 100
[13]; Rate 62 g/ha
  Plant response rating, Morningglory: 0
[13]; Rate 125 g/ha
  Plant response rating, Morningglory: 0
[13]; [23]
  Plant response rating (0 to 100), Morningglory: 70
[13]; preemergence, Rate 250 g/ha
  Plant response rating, Morningglory: 30
[14]; Rate 62 g/ha
  Plant response rating, Johnsongrass: 0
[14]; Rate 125 g/ha
  Plant response rating, Johnsongrass: 0
[14]; Rate 250 g/ha
  Plant response rating (0 to 100), Johnsongrass: 0
[14]; Rate 500 g/ha
  Plant response rating (0 to 100), Johnsongrass: 0
[15]; Rate 125 g/ha
  Plant response rating, Soybean: 0
[15]; [23]
  Plant response rating (0 to 100), Soybean: 50
[15]; preemergence, Rate 250 g/ha
  Plant response rating, Soybean: 0
[16]; Rate 62 g/ha
  Plant response rating, Cocklebur: 0
[16]; Rate 125 g/ha
  Plant response rating, Cocklebur: 0
[16]; Rate 250 g/ha
  Plant response rating (0 to 100), Cocklebur: 0
[16]; Rate 500 g/ha
  Plant response rating (0 to 100), Cocklebur: 30
[17]; Rate 62 g/ha
  Plant response rating, Crabgrass: 100
[17]; Rate 125 g/ha
  Plant response rating, Crabgrass: 100
[17]; Rate 250 g/ha
  Plant response rating (0 to 100), Crabgrass: 100
[17]; Rate 500 g/ha
  Plant response rating (0 to 100), Crabgrass: 100
[18]; Rate 62 g/ha
  Plant response rating, Nightshade: 20
[18]; Rate 125 g/ha
  Plant response rating, Nightshade: 50
[18]; Rate 250 g/ha
  Plant response rating, Nightshade: 50
[19]; Rate 62 g/ha
  Plant response rating, Corn: 0
[19]; Rate 125 g/ha
  Plant response rating, Corn: 0
[19]; Rate 250 g/ha
  Plant response rating (0 to 100), Corn: 0
[19]; Rate 500 g/ha
  Plant response rating (0 to 100), Corn: 0
[20]
  Plant response rating (0 to 100), Sunflower: 60
[21]; Rate 250 g/ha
  Barnyardgrass plant response rating: 90
[21]; Rate 500 g/ha
  Barnyardgrass plant response rating: 90
[21]; Rate 62 g/ha
  Plant response rating, Barnyardgrass: 30
[21]; Rate 125 g/ha
  Plant response rating, Barnyardgrass: 40
[22]; Rate 250 g/ha
  Rice plant response rating: 20
[22]; Rate 500 g/ha
  Rice plant response rating: 50
[22]; Rate 62 g/ha
  Plant response rating, Rice: 0
[22]; Rate 125 g/ha
  Plant response rating, Rice: 20
